# Measurements reported in BindingDB's records for doi:10.1016/s0165-0270(00)00358-7 (University of Nebraska, 2001).
# Target: T1, Alpha-2C adrenergic receptor (Rattus norvegicus, UniProt P22086)
# T1 sequence (P22086 whole entry): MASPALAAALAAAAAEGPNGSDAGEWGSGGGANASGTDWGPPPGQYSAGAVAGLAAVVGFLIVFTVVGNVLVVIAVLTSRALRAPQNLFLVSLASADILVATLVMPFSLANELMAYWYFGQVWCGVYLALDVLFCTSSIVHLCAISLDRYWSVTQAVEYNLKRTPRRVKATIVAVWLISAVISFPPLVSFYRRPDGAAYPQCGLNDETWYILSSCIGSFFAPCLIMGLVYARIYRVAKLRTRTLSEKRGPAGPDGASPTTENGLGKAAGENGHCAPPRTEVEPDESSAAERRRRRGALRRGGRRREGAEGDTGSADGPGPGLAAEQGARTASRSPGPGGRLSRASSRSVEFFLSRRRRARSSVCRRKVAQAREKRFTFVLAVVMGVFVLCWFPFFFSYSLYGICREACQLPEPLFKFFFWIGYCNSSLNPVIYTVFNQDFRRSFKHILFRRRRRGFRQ
row,Ki [nM],SMILES
1,6.2,Nc1nc2c(ncn2[C@@H]2O[C@H](COP(=O)(O)OP(=O)(O)NP(=O)(O)O)[C@@H](O)[C@H]2O)c(=O)[nH]1 [CAS_59803-98-4]
2,1.6,[N-]=[N+]=Nc1ccc(NP(=O)(O)OP(=O)(O)OP(=O)(O)OC[C@H]2O[C@@H](n3cnc4c(=O)[nH]c(N)nc43)[C@H](O)[C@@H]2O)cc1 [CAS_59803-98-4]

row,SMILES,Ki [nM]
1,Nc1ncnc2c1ncn2[C@@H]1O[C@H](COP(=O)(O)OP(=O)(O)OP(=O)(O)O)[C@@H](O)[C@H]1O,3.1
